The text below walks through data of ChEMBL document CHEMBL1201862, “PubChem BioAssay data set” (2004).

Common to all, as to test: growth of human tumour cells (NCI), 48 h
For assay [1], the system named is NCI-H522.
For assay [2], the system named is M14.
The test system of assay [3] is UACC-257.
Assay [4] relates to RXF 393.
For assay [5], the system named is HCT-15.
Assay [6] has as its system MOLT-4.
In assay [7] the test system is SNB-19.
In assay [8] the test system is HL-60.
Assay [9] deals with SNB-75.
The subject of assay [10] is IGROV-1.
Assay [11] relates to CCRF-CEM.
Assay [12] has as its system SK-MEL-5.
For assay [13], the system named is KM12.
Assay [14] relates to NCI-H460.
Assay [15] relates to NCI-H226.
Assay [16] deals with SK-MEL-2.
For assay [17], the system named is OVCAR-3.

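These data come from cells grown in 96-well plates and exposed to compound for 48 hours at five concentrations. Abbreviation: GI50, concentration required for 50% inhibition of growth.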 Activity calls are given as the source filed them. Rule as the data show it: active = GI50 up to about 1.1 µM and inactive = higher.

Regarding `CSC(=S)N/N=C/c1nccc2ccccc12`, the GI50 in [1] was 0.34 µM (active); in [2], 1.36 µM (inactive); in assay [3] it was 2.07 µM (inactive); in assay [4], 0.721 µM (active); in assay [5] it was 3.45 µM; in assay [6], 0.204 µM (active). For the same molecule, the GI50 in [7] is 2.29 µM (inactive); in [8], 0.372 µM (active); in assay [9], 0.522 µM (active); in assay [10] it was 1.91 µM (inactive); in assay [11] it was 0.115 µM (active); in [12] it was 1.08 µM (active). The GI50 in assay [13] was 2.68 µM (inactive); in [14], 1.09 µM (active); in assay [15], 1.69 µM (inactive); in assay [16], 1.07 µM (active).

Consider `CC1(C)OC(=O)C(=C2CC(c3ccccc3)c3ccccc32)C(=O)O1` (configuration not stated), for which the GI50 in assay [1] is > 100 µM (inactive); in [2], > 100 µM (inactive); in assay [3], > 100 µM (inactive); in assay [4] it was > 100 µM (inactive); in [5], over 100 µM; in assay [6] it was > 100 µM (inactive). For the same molecule, the GI50 in assay [7], in [8], in assay [17], in assay [9], in [10] and in [11] was > 100 µM (inactive) in each case. Besides, the GI50 in assay [12], in [14] and in [15] was > 100 µM (inactive) throughout.

Regarding `CCOc1ccc(/N=C\c2cc(OC)c(OC)c(OC)c2)cc1`, the GI50 was > 100 µM (inactive) in assay [1]; > 100 µM (inactive) in [2]; > 100 µM (inactive) in [3]; 2.08 µM (inactive) in assay [4]; 32.4 µM in assay [5]; > 100 µM (inactive) in assay [6]. In addition, the GI50 in assay [7] is > 100 µM (inactive); in assay [8] it was > 100 µM (inactive); in assay [17], > 100 µM (inactive); in assay [9], 32.4 µM (inactive); in assay [10], > 100 µM (inactive); in [11] it was > 100 µM (inactive). In addition, the GI50 in assay [12], in assay [13], in assay [14] and in assay [16] was > 100 µM (inactive) each time.

For `O=c1nc2sc3ccc4ccccc4c3n2nc1-c1ccccc1`, the GI50 in assay [2] was 44.4 µM (inactive); in assay [3], 99.3 µM (inactive); in assay [4] it was 21 µM (inactive); in [5], 45.1 µM; in [6], > 100 µM (inactive); in [7], 29.4 µM (inactive). In addition, the GI50 is > 100 µM (inactive) in assay [8]; 19 µM (inactive) in assay [17]; 21.1 µM (inactive) in assay [9]; 25.4 µM (inactive) in assay [10]; > 100 µM (inactive) in assay [11]; 59.2 µM (inactive) in assay [12]. In addition, the GI50 in assay [13] is 63.5 µM (inactive); in assay [14], 22.1 µM (inactive); in assay [15], 59.2 µM (inactive); in [16], > 100 µM (inactive).

For the molecule `COc1cc(/C=C/C(=O)c2sc(Nc3ccccc3)nc2C)ccc1O`, the GI50 is 42.4 µM (inactive) in assay [1]; > 100 µM (inactive) in [3]; 51.9 µM (inactive) in [4]; 84.1 µM in [5]; 46 µM (inactive) in [6]; > 100 µM (inactive) in [7]. In addition, the GI50 was 44.2 µM (inactive) in assay [8]; 33.5 µM (inactive) in [17]; 23.5 µM (inactive) in assay [9]; > 100 µM (inactive) in assay [10]; 88.5 µM (inactive) in assay [11]; 38.4 µM (inactive) in assay [12]. Besides, the GI50 in assay [13], in [14] and in assay [16] was > 100 µM (inactive) in each case.

With `COc1ccc(C2S/C(=C\c3cccc([N+](=O)[O-])c3)C(=O)N2NC(=O)Cc2ccccc2)cc1` (configuration not stated), the GI50 in assay [1] was > 100 µM (inactive); in assay [2] it was > 100 µM (inactive); in assay [3] it was > 100 µM (inactive); in assay [4] it was > 100 µM (inactive); in assay [5], over 100 µM; in assay [6], > 100 µM (inactive). For the same molecule, the GI50 in [8], in assay [9], in assay [10], in assay [11], in assay [12] and in [13] was > 100 µM (inactive) in each case. For the same molecule, the GI50 in assay [14], in assay [15] and in [16] was > 100 µM (inactive) in each case.

For `COc1ccc(C(=O)C(C(=O)C(=O)Nc2nccs2)c2ccc(OC)cc2)cc1` (configuration not stated), the GI50 in assay [1] is 92 µM (inactive); in assay [2], > 100 µM (inactive); in assay [3], > 100 µM (inactive); in [4] it was 80.9 µM (inactive); in [5] it was over 100 µM; in [6] it was > 100 µM (inactive). For the same molecule, the GI50 in assay [7] was > 100 µM (inactive); in assay [17], > 100 µM (inactive); in assay [9], 73.6 µM (inactive); in assay [10], > 100 µM (inactive); in assay [11] it was > 100 µM (inactive); in [12], > 100 µM (inactive). The GI50 in assay [13], in assay [14] and in assay [16] was > 100 µM (inactive) throughout.

As to `C[C@@H]1CC(=O)C2CCCC1C2=O` (some centres not stated), the GI50 is > 100 µM (inactive) in [1]; > 100 µM (inactive) in assay [2]; > 100 µM (inactive) in assay [3]; > 100 µM (inactive) in assay [4]; over 100 µM in [5]; > 100 µM (inactive) in assay [6]. The GI50 in [7], in assay [8], in assay [17], in [9], in assay [10] and in [11] was > 100 µM (inactive) each time. Besides, the GI50 in assay [12], in [13], in assay [14] and in [15] was > 100 µM (inactive) in each case.

On to `COC(=O)C1=C(C(=O)OC)C2C=CC1C1C(Cl)=C(Cl)C21` (configuration not stated), for which the GI50 was > 100 µM (inactive) in [1]; > 100 µM (inactive) in [2]; > 100 µM (inactive) in assay [3]; > 100 µM (inactive) in [4]; over 100 µM in assay [5]; > 100 µM (inactive) in assay [6]. Moreover, the GI50 in assay [8] is > 10 µM (inactive); in assay [17], > 100 µM (inactive); in assay [9], > 100 µM (inactive); in assay [10], > 100 µM (inactive); in [11], > 100 µM (inactive); in assay [12], 88.7 µM (inactive). The GI50 in assay [13], in assay [14] and in [16] was > 100 µM (inactive) in each case.

Regarding `O=C(CCc1ccccc1)NS(=O)(=O)c1ccccc1`, the GI50 in assay [1], in [2], in [3], in [4], in assay [6] and in [7] was > 100 µM (inactive) each time. Besides, the GI50 in assay [8], in assay [17], in assay [9], in [10], in assay [11] and in assay [13] was > 100 µM (inactive) each time. Moreover, the GI50 in assay [14], in [15] and in assay [16] was > 100 µM (inactive) each time.

With `CC(=O)Nc1ccc(-c2nnc(SCC(=O)Nc3ccccc3[N+](=O)[O-])o2)cc1`, the GI50 was 45.9 µM (inactive) in assay [1]; > 100 µM (inactive) in [2]; > 100 µM (inactive) in assay [3]; > 100 µM (inactive) in assay [4]; over 100 µM in assay [5]; 71.4 µM (inactive) in [6]. The GI50 in assay [8] was 52 µM (inactive); in [17], 34.4 µM (inactive); in assay [9] it was 92.7 µM (inactive); in assay [10], > 100 µM (inactive); in assay [11], > 100 µM (inactive); in assay [12], > 100 µM (inactive). In addition, the GI50 in [13], in [14], in [15] and in assay [16] was > 100 µM (inactive) each time.

Regarding `C1CCOC2(CCC3(CC2)OCCCCO3)OC1`, the GI50 in assay [1] is > 100 µM (inactive); in assay [2], > 100 µM (inactive); in [3], > 100 µM (inactive); in [4], > 100 µM (inactive); in [5] it was over 100 µM; in assay [6] it was > 100 µM (inactive). The GI50 in assay [7], in assay [8], in assay [9], in [10], in [11] and in [12] was > 100 µM (inactive) each time. In addition, the GI50 in assay [13], in [14], in [15] and in [16] was > 100 µM (inactive) throughout.

`CCCC(O)[C@@H](O)c1ccc2c(c1O)C(=O)c1c(OC)cccc1C2=O` (some centres not stated): the GI50 was 16.1 µM (inactive) in assay [1]; 31.6 µM (inactive) in assay [2]; 29.9 µM (inactive) in [3]; 26.2 µM in assay [5]; 21.1 µM (inactive) in assay [6]; 80.4 µM (inactive) in assay [7]. Also, the GI50 in assay [8] was 18.4 µM (inactive); in assay [17], 34.8 µM (inactive); in assay [9] it was 47 µM (inactive); in [10] it was 30.7 µM (inactive); in assay [11], 31.3 µM (inactive); in [12], 16.8 µM (inactive). The GI50 in [13] was 35.6 µM (inactive); in assay [14], 29 µM (inactive); in [15] it was 27.3 µM (inactive); in assay [16], 46.8 µM (inactive).
